This passage reports Emax results from patent US20160046592A1, “PHARMACEUTICAL COMPOSITION FOR THE TREATMENT OF DIABETES” (Ajinomoto Co., Inc., priority 2013, published 2016).

Counter-ions that a name gives are not always drawn.

The test addresses T1, PPAR-α (Homo sapiens, UniProt Q07869).
T1 construct: expressed in transfected cells; host or cells: CV-1 (African green monkey kidney)
T1 sequence (Q07869 167-468): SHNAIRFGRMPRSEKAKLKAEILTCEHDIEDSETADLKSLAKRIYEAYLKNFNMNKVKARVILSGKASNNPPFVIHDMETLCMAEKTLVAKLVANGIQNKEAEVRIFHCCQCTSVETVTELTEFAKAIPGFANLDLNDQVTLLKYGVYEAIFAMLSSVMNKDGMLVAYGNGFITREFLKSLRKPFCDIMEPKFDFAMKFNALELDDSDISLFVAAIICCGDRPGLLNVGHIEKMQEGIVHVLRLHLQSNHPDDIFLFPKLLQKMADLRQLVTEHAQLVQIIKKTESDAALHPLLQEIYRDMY
Kind of test: Measurement of PPAR-α activity (GAL4 luciferase reporter assay in CV-1 cells). Format: cell-based. The note with it: 100(A/B): A = maximum PPAR-α activity of test compound at 3, 10, 30 and 100 μM, B = activity of the compound of WO/2011/058154 at 100 μM, 18 to 20 hours, read-out: Relative fold induction (%) of PPAR α. The method, then:
The PPAR-α activity was measured according to the published article (THE JOURNAL OF BIOLOGICAL CHEMISTRY Vol. 270, No 0.22: 12953-12956, 1995).
Plasmids used for the PPAR-α activity measurement were constructed as follows. A luciferase expression plasmid (UAS×5-TK-Luc) used was obtained by introducing a sequence in which five yeast GAL4-binding sequences are linked in tandem into a portion upstream of a thymidine kinase promoter of pTAL-Luc (Takara Bio Inc., 6252-1). A PPAR-α receptor expression plasmid (hGR-GAL4-hPPARα) used was obtained by introducing a human GR N-terminal region (1-76aa), a yeast GAL4 DNA-binding region (1-147aa), and a PPARα ligand-binding region (167-468aa) between Not I and Sal I sites of pExchange-1 Core Vector (Invitrogen, 211176).
A reporter assay was conducted by the following method using African green monkey kidney-derived CV-1 cells. The CV-1 cells were seeded in a 96-well plate (Thermo Fisher Scientific K.K., 4938) at 2×10^4 cells/well by using a 10% FBS-containing DMEM (NACALAI TESQUE, INC., 0845874) medium. After culturing under conditions of 37° C. and 5% CO2 for 2 hours, the cells were transfected with the plasmids. The transfection was conducted by using Lipofectamine LTX (Invitrogen, 15338-100) according to the attached manual. The plasmid solution was prepared by adding a mixture solution of the luciferase expression plasmid and the PPAR-α receptor expression plasmid to OPTI-MEM I (Invitrogen, 11058-021). After the transfection, the test compound was added, and the cells were cultured at 37° C. in the presence of 5% CO2 for 18 to 20 hours. After the culturing, the luciferase activity was measured with Luminescensor JNR (ATTO) by using Bright-Glo (Promega, E2620).
The fold induction of PPAR-α by each test compound was calculated by the following method. A relative fold induction (%) of PPAR-α by the test compound was defined as 100 (A/B), where A represents the maximum value of the PPAR-α activities of the test compound at 3 μM, 10 μM, 30 μM, and 100 μM, and B represents the PPAR-α activity of the compound of WO/2011/058154 at 100 μM.
On the technique in general: In a reporter assay the amount or activity of a reporter protein is the signal.
In the case of `CSc1cc(F)c(F)cc1-c1ccc(OCc2cccc(C(=O)N(CC(=O)O)[C@@H](C)C(N)=O)c2)cc1` [Example 22, 2-[[(1S)-2-Amino-1-methyl-2-oxo-ethyl]-[3-[[4-(4,5-difluoro-2-methylsulfanyl-phenyl)phenoxy]methyl]benzoyl]amino]acetic Acid], the Emax is 14%.
As for `COC(C)(C)CN(CC(=O)O)C(=O)c1cccc(COc2ccc(-c3cc(F)c(F)cc3SC)cc2)c1` [Example 23, 2-[[3-[[4-(4,5-Difluoro-2-methylsulfanyl-phenyl)phenoxy]methyl]benzoyl]-(2-methoxy-2-methyl-propyl)amino]acetic Acid], the figure is 22%; as for `CCN(CC)CCN(CC(=O)O)C(=O)c1cccc(COc2ccc(-c3cc(F)c(F)cc3SC)cc2)c1` [Example 24, 2-[2-Diethylaminoethyl-[3-[[4-(4,5-difluoro-2-methylsulfanyl-phenyl)phenoxy]methyl]benzoyl]amino]acetic Acid Trifluoroacetate], 13%; as for `CSc1cc(F)c(F)cc1-c1ccc(OCc2cccc(C(=O)N(CC(=O)O)CC(=O)N3CCCC3)c2)cc1` [Example 25, 2-[[3-[[4-(4,5-Difluoro-2-methylsulfanyl-phenyl)phenoxy]methyl]benzoyl]-(2-oxo-2-pyrrolidin-1-yl-ethyl)amino]acetic Acid], 13%.
For `CSc1cc(F)c(F)cc1-c1ccc(OCc2cccc(C(=O)N(CCCN(C)C)CC(=O)O)c2)cc1` [Example 26, 2-[[3-[[4-(4,5-Difluoro-2-methylsulfanyl-phenyl)phenoxy]methyl]benzoyl]-[3-(dimethylamino)propyl]amino]acetic Acid Trifluoroacetate] the value was 11%; for `CSc1cc(F)c(F)cc1-c1ccc(OCc2cccc(C(=O)N(CC(=O)O)CC(=O)O)c2)cc1` [Example 27, 2-[Carboxymethyl-[3-[[4-(4,5-difluoro-2-methylsulfanyl-phenyl)phenoxy]methyl]benzoyl]amino]acetic Acid], 10%; for `CSc1cc(F)c(F)cc1-c1ccc(OCc2cccc(C(=O)N3C[C@H](O)C[C@H]3C(=O)O)c2)cc1` [Example 29, (2S,4R)-1-[3-[[4-(4,5-Difluoro-2-methylsulfanyl-phenyl)phenoxy]methyl]benzoyl]-4-hydroxy-pyrrolidine-2-carboxylic Acid], 22%.
As for `COCCCN(CC(=O)O)C(=O)c1cccc(COc2ccc(-c3cc(F)c(F)cc3SC)cc2)c1` [Example 30, 2-[[3-[[4-(4,5-Difluoro-2-methylsulfanyl-phenyl)phenoxy]methyl]benzoyl]-(3-methoxypropyl)amino]acetic Acid], the figure is 83%; as for `CSc1cc(F)c(F)cc1-c1ccc(OCc2cccc(C(=O)N(CCS(C)(=O)=O)CC(=O)O)c2)cc1` [Example 31, 2-[[3-[[4-(4,5-Difluoro-2-methylsulfanyl-phenyl)phenoxy]methyl]benzoyl]-(2-methylsulfonylethyl)amino]acetic Acid], 8.4%; as for `CSc1cc(F)c(F)cc1-c1ccc(OCc2cccc(C(=O)N(CCCS(C)(=O)=O)CC(=O)O)c2)cc1` [Example 32, 2-[[3-[[4-(4,5-Difluoro-2-methylsulfanyl-phenyl)phenoxy]methyl]benzoyl]-(3-methylsulfonylpropyl)amino]acetic Acid], 7.1%.
As to `CSc1cc(F)c(F)cc1-c1ccc(OCc2cccc(C(=O)N(CC(=O)O)CC3CCOCC3)c2)cc1` [Example 34, 2-[[3-[[4-(4,5-Difluoro-2-methylsulfanyl-phenyl)phenoxy]methyl]benzoyl]-(tetrahydropyran-4-ylmethyl)amino]acetic Acid], the Emax is 7.3%.
For `CSc1cc(F)c(F)cc1-c1ccc(OCc2cccc(C(=O)N(CC(=O)O)C3CCNCC3)c2)cc1` [Example 36, 2-[[3-[[4-(4,5-Difluoro-2-methylsulfanyl-phenyl)phenoxy]methyl]benzoyl]-(4-piperidyl)amino]acetic Acid Trifluoroacetate] the value was 8%; for `CSc1cc(F)c(F)cc1-c1ccc(OCc2cccc(C(=O)N(CC(=O)O)CC3CCN(C)CC3)c2)cc1` [Example 37, 2-[[3-[[4-(4,5-Difluoro-2-methylsulfanyl-phenyl)phenoxy]methyl]benzoyl]-[(1-methyl-4-piperidyl)methyl]amino]acetic Acid Trifluoroacetate], 10%; for `CCN1CCC(CN(CC(=O)O)C(=O)c2cccc(COc3ccc(-c4cc(F)c(F)cc4SC)cc3)c2)CC1` [Example 38, 2-[[3-[[4-(4,5-Difluoro-2-methylsulfanyl-phenyl)phenoxy]methyl]benzoyl]-[(1-ethyl-4-piperidyl)methyl]amino]acetic Acid Trifluoroacetate], 8.9%.
As for `CSc1cc(F)c(F)cc1-c1ccc(OCc2cccc(C(=O)N(CC(=O)O)Cc3cccnc3)c2)cc1` [Example 39, 2-[[3-[[4-(4,5-Difluoro-2-methylsulfanyl-phenyl)phenoxy]methyl]benzoyl]-(3-pyridylmethyl)amino]acetic Acid Trifluoroacetate], the figure is 22%; as for `CSc1cc(F)c(F)cc1-c1ccc(OCc2cccc(C(=O)N(CCN3CCS(=O)(=O)CC3)CC(=O)O)c2)cc1` [Example 41, 2-[[3-[[4-(4,5-Difluoro-2-methylsulfanyl-phenyl)phenoxy]methyl]benzoyl]-[2-(1,1-dioxo-1,4-thiazinan-4-yl)ethyl]amino]acetic Acid Trifluoroacetate], 12%.
Turning to `CCNCCN(CC(=O)O)C(=O)c1cccc(COc2ccc(-c3cc(F)c(F)cc3SC)cc2)c1` [Example 43, 2-[[3-[[4-(4,5-Difluoro-2-methylsulfanyl-phenyl)phenoxy]methyl]benzoyl]-[2-(ethylamino)ethyl]amino]acetic Acid Trifluoroacetate], the Emax was 9%.
As to `CSc1cc(F)c(F)cc1-c1ccc(OCc2cccc(C(=O)N(CCNC(C)=O)CC(=O)O)c2)cc1` [Example 44, 2-[2-Acetamidoethyl-[3-[[4-(4,5-difluoro-2-methylsulfanyl-phenyl)phenoxy]methyl]benzoyl]amino]acetic Acid], the Emax was 25%.
`COC(C)CN(CC(=O)O)C(=O)c1cccc(COc2ccc(-c3cc(F)c(F)cc3SC)cc2)c1` (centres unmarked) [Example 45, 2-[[3-[[4-(4,5-Difluoro-2-methylsulfanyl-phenyl)phenoxy]methyl]benzoyl]-(2-methoxypropyl)amino]acetic Acid]: the Emax is 25%.
For `CSc1cc(F)c(F)cc1-c1ccc(OCc2cccc(C(=O)N(CC(=O)O)CC3CCS(=O)(=O)C3)c2)cc1` (centres unmarked) [Example 46, 2-[[3-[[4-(4,5-Difluoro-2-methylsulfanyl-phenyl)phenoxy]methyl]benzoyl]-[(1,1-dioxothiolan-3-yl)methyl]amino]acetic Acid] the value was 4.6%; for `CSc1cc(F)c(F)cc1-c1ccc(OCc2cccc(C(=O)N(CC(=O)O)Cc3cnco3)c2)cc1` [Example 47, 2-[[3-[[4-(4,5-Difluoro-2-methylsulfanyl-phenyl)phenoxy]methyl]benzoyl]-(oxazol-5-ylmethyl)amino]acetic Acid], 7.3%; for `CSc1cc(F)c(F)cc1-c1ccc(OCc2cccc(C(=O)N(CC(=O)O)[C@H]3CC[C@@H](N)CC3)c2)cc1` [Example 48, 2-[(4-Aminocyclohexyl)-[3-[[4-(4,5-difluoro-2-methylsulfanyl-phenyl)phenoxy]methyl]benzoyl]amino]acetic Acid Trifluoroacetate], 4%.
For `COCCOCCN(CC(=O)O)C(=O)c1cccc(COc2ccc(-c3cc(F)c(F)cc3SC)cc2)c1` [Example 49, 2-[[3-[[4-(4,5-Difluoro-2-methylsulfanyl-phenyl)phenoxy]methyl]benzoyl]-[2-(2-methoxyethoxy)ethyl]amino]acetic Acid], the Emax came out at 29%.
